Experiments:
Test in all cases: relative viability (nuclei count vs DMSO), 5 days (fraction); higher = more cells survive
COR-L23 = system: COR-L23
Procedure, shortened: (§1)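 Medians of duplicate plates are given as relative viability. That measure is the nuclei count in treated wells divided by the count in vehicle wells. Counts were taken on 4× images of lung cancer cell lines in 1536-well plates, 5 days after pin-tool dosing the day after seeding with one drug alone or a fixed anchor-drug dose plus five library-drug doses (not always all listed) in √10 steps.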

ChaGo-K-1 = system: ChaGo-K-1
Procedure, shortened: as §1

EMC-BAC-2 = system: EMC-BAC-2
Procedure, shortened: as §1

EPLC-272H = system: EPLC-272H
Procedure, shortened: as §1

H3255 = system: H3255
Procedure, shortened: as §1

HCC-44 = system: HCC-44
Procedure, shortened: as §1

HCC-827 = system: HCC-827
Procedure, shortened: as §1

LCLC-103H = system: LCLC-103H
Procedure, shortened: as §1

LU99A = system: LU99A
Procedure, shortened: as §1

NCI-H1395 = system: NCI-H1395
Procedure, shortened: as §1

NCI-H1651 = system: NCI-H1651
Procedure, shortened: as §1

NCI-H1793 = system: NCI-H1793
Procedure, shortened: as §1

NCI-H1944 = system: NCI-H1944
Procedure, shortened: as §1

NCI-H2023 = system: NCI-H2023
Procedure, shortened: as §1

NCI-H2085 = system: NCI-H2085
Procedure, shortened: as §1

NCI-H2087 = system: NCI-H2087
Procedure, shortened: as §1

NCI-H2405 = system: NCI-H2405
Procedure, shortened: as §1

NCI-H520 = system: NCI-H520
Procedure, shortened: as §1

NCI-H650 = system: NCI-H650
Procedure, shortened: as §1

NCI-H838 = system: NCI-H838
Procedure, shortened: as §1

SK-MES-1 = system: SK-MES-1
Procedure, shortened: as §1

O=c1cc(N2CCOCC2)oc2c(-c3cccc4c3sc3ccccc34)cccc12 + CC(=O)Nc1cccc(-n2c(=O)n(C3CC3)c(=O)c3c(Nc4ccc(I)cc4F)n(C)c(=O)c(C)c32)c1 [Trametinib] (partner 0.02 µM)
relative viability (COR-L23; first compound 0.01 µM): 0.617 | relative viability (COR-L23; first compound 0.03162 µM): 0.614 | relative viability (COR-L23; first compound 0.1 µM): 0.552 | relative viability (COR-L23; first compound 0.3162 µM): 0.633 | relative viability (COR-L23; first compound 1 µM): 0.655 | relative viability (ChaGo-K-1; first compound 0.01 µM): 0.845 | relative viability (ChaGo-K-1; first compound 0.03162 µM): 0.958 | relative viability (ChaGo-K-1; first compound 0.1 µM): 0.966 | relative viability (ChaGo-K-1; first compound 0.3162 µM): 0.893 | relative viability (ChaGo-K-1; first compound 1 µM): 0.882 | relative viability (EMC-BAC-2; first compound 0.01 µM): 0.976 | relative viability (EMC-BAC-2; first compound 0.03162 µM): 0.93 | relative viability (EMC-BAC-2; first compound 0.1 µM): 0.931 | relative viability (EMC-BAC-2; first compound 0.3162 µM): 0.774 | relative viability (EMC-BAC-2; first compound 1 µM): 0.865 | relative viability (EPLC-272H; first compound 0.01 µM): 0.301 | relative viability (EPLC-272H; first compound 0.03162 µM): 0.285 | relative viability (EPLC-272H; first compound 0.1 µM): 0.333 | relative viability (EPLC-272H; first compound 0.3162 µM): 0.284 | relative viability (EPLC-272H; first compound 1 µM): 0.279 | relative viability (H3255; first compound 0.01 µM): 0.548 | relative viability (H3255; first compound 0.03162 µM): 0.691 | relative viability (H3255; first compound 0.1 µM): 0.675 | relative viability (H3255; first compound 0.3162 µM): 0.703 | relative viability (H3255; first compound 1 µM): 0.552 | relative viability (HCC-44; first compound 0.01 µM): 1.04 | relative viability (HCC-44; first compound 0.03162 µM): 1.06 | relative viability (HCC-44; first compound 0.1 µM): 1.02 | relative viability (HCC-44; first compound 0.3162 µM): 1.04 | relative viability (HCC-44; first compound 1 µM): 1.03 | relative viability (HCC-827; first compound 0.01 µM): 0.528 | relative viability (HCC-827; first compound 0.03162 µM): 0.508 | relative viability (HCC-827; first compound 0.1 µM): 0.547 | relative viability (HCC-827; first compound 0.3162 µM): 0.504 | relative viability (HCC-827; first compound 1 µM): 0.525 | relative viability (LCLC-103H; first compound 0.01 µM): 0.712 | relative viability (LCLC-103H; first compound 0.03162 µM): 0.698 | relative viability (LCLC-103H; first compound 0.1 µM): 0.678 | relative viability (LCLC-103H; first compound 0.3162 µM): 0.652 | relative viability (LCLC-103H; first compound 1 µM): 0.663 | relative viability (LU99A; first compound 0.01 µM): 0.561 | relative viability (LU99A; first compound 0.03162 µM): 0.576 | relative viability (LU99A; first compound 0.1 µM): 0.562 | relative viability (LU99A; first compound 0.3162 µM): 0.501 | relative viability (LU99A; first compound 1 µM): 0.541 | relative viability (NCI-H1395; first compound 0.03162 µM): 1.1 | relative viability (NCI-H1395; first compound 0.1 µM): 1.02 | relative viability (NCI-H1395; first compound 0.3162 µM): 1.07 | relative viability (NCI-H1395; first compound 1 µM): 1.01 | relative viability (NCI-H1651; first compound 0.01 µM): 0.816 | relative viability (NCI-H1651; first compound 0.03162 µM): 0.818 | relative viability (NCI-H1651; first compound 0.1 µM): 0.817 | relative viability (NCI-H1651; first compound 0.3162 µM): 0.819 | relative viability (NCI-H1651; first compound 1 µM): 0.871 | relative viability (NCI-H1793; first compound 0.01 µM): 0.372 | relative viability (NCI-H1793; first compound 0.03162 µM): 0.411 | relative viability (NCI-H1793; first compound 0.1 µM): 0.504 | relative viability (NCI-H1793; first compound 0.3162 µM): 0.406 | relative viability (NCI-H1793; first compound 1 µM): 0.38 | relative viability (NCI-H1944; first compound 0.01 µM): 0.448 | relative viability (NCI-H1944; first compound 0.03162 µM): 0.403 | relative viability (NCI-H1944; first compound 0.1 µM): 0.396 | relative viability (NCI-H1944; first compound 0.3162 µM): 0.411 | relative viability (NCI-H1944; first compound 1 µM): 0.363 | relative viability (NCI-H2023; first compound 0.01 µM): 0.676 | relative viability (NCI-H2023; first compound 0.03162 µM): 0.574 | relative viability (NCI-H2023; first compound 0.1 µM): 0.624 | relative viability (NCI-H2023; first compound 0.3162 µM): 0.601 | relative viability (NCI-H2023; first compound 1 µM): 0.396 | relative viability (NCI-H2085; first compound 0.01 µM): 0.515 | relative viability (NCI-H2085; first compound 0.03162 µM): 0.541 | relative viability (NCI-H2085; first compound 0.1 µM): 0.515 | relative viability (NCI-H2085; first compound 0.3162 µM): 0.577 | relative viability (NCI-H2085; first compound 1 µM): 0.454 | relative viability (NCI-H2087; first compound 0.01 µM): 0.225 | relative viability (NCI-H2087; first compound 0.03162 µM): 0.195 | relative viability (NCI-H2087; first compound 0.1 µM): 0.231 | relative viability (NCI-H2087; first compound 0.3162 µM): 0.188 | relative viability (NCI-H2087; first compound 1 µM): 0.214 | relative viability (NCI-H2405; first compound 0.01 µM): 0.751 | relative viability (NCI-H2405; first compound 0.03162 µM): 0.664 | relative viability (NCI-H2405; first compound 0.1 µM): 0.631 | relative viability (NCI-H2405; first compound 0.3162 µM): 0.686 | relative viability (NCI-H2405; first compound 1 µM): 0.665 | relative viability (NCI-H520; first compound 0.01 µM): 1.14 | relative viability (NCI-H520; first compound 0.03162 µM): 0.594 | relative viability (NCI-H520; first compound 0.1 µM): 0.768 | relative viability (NCI-H520; first compound 0.3162 µM): 0.717 | relative viability (NCI-H520; first compound 1 µM): 0.732 | relative viability (NCI-H650; first compound 0.01 µM): 1.05 | relative viability (NCI-H650; first compound 0.03162 µM): 1.1 | relative viability (NCI-H650; first compound 0.3162 µM): 0.939 | relative viability (NCI-H650; first compound 1 µM): 1.04 | relative viability (NCI-H838; first compound 0.01 µM): 0.594 | relative viability (NCI-H838; first compound 0.03162 µM): 0.557 | relative viability (NCI-H838; first compound 0.1 µM): 0.481 | relative viability (NCI-H838; first compound 0.3162 µM): 0.469 | relative viability (NCI-H838; first compound 1 µM): 0.442 | relative viability (SK-MES-1; first compound 0.01 µM): 0.546 | relative viability (SK-MES-1; first compound 0.03162 µM): 0.533 | relative viability (SK-MES-1; first compound 0.1 µM): 0.518 | relative viability (SK-MES-1; first compound 0.3162 µM): 0.516 | relative viability (SK-MES-1; first compound 1 µM): 0.48
